Data: US20260062388A1, “POLYMORPHIC FORM OF NEPICASTAT ACID ADDITION SALT, PREPARATION METHOD THEREFOR AND USE THEREOF” (Jiangsu Yahong Meditech Co., Ltd., priority 2022, published 2026)

Legend:
[1] = Approximate solubility test on crystal forms of hydrochloride salt of nepicastat at room temperature; type: physicochemical; conditions: thermodynamic from solid, room temperature
[2] = Dynamic vapor sorption (DVS) hygroscopicity; type: physicochemical
Protocol: DVS curves are acquired on DVS Intrinsic from SMS (Surface Measurement Systems). • Testing temperature: 25° C. • Sample amount: 10-20 mg • dm/dt: 0.002%/min; • RH range: 0% RH-95% RH-0% RH • RH gradient: 10%

[3] = Bioavailability test, intravenous and oral administration to mice; conditions: mouse, in vivo, IV 15 mg/kg, PO 30 mg/kg
Excerpt: The crystal forms I and II of hydrochloride salt of nepicastat and the crystal forms of other acid addition salts of nepicastat in Table 31 were taken, and administered intravenously and orally to mice respectively, wherein: • the formulation for intravenous (IV) administration was: 5% (v/v) DMSO+10% (v/v) Solutol HS 15+85% (v/v) physiological saline; • the formulation for oral (PO) administration was: 0.5% (v/v) MC4000 aqueous solution (MC: methylcellulose).
The specific administration was as follows: • Experiment: three mice were subjected to the test in parallel for each formulation; • Body weight: about 30 g • Administration route: IV; PO • Dose administered: IV-15 mg/kg; PO-30 mg/kg; • Before administration: fasting for 12 hours before administration, and allowing mice to drink water; • After administration: allowing mice to drink water, and feeding within 2 hours after administration; • Blood collecting site: the vein at a hind leg • Blood collecting times: IV—0.083, 0.25, 0.5, 1, 2, 4, 6, 8, 24 h; • PO—0.25, 0.5, 1, 2, 4, 6, 8, 24 h.
Due to very close solubilities of the crystal forms I and II of hydrochloride salt of nepicastat in water, it was found in the experiment that both of them obtained clear solutions upon preparing the administration samples.

[4] = Stability studies under relatively harsh conditions (40° C., 40° C./75% RH, 60° C., 60° C./75% RH) on crystal forms I and II; type: physicochemical; conditions: for crystal form stability (XRPD pattern): 15 days
[5] = Long-term stability test (25° C./60% RH) of crystal form I; type: physicochemical; conditions: for Moisture (KF, w/w %) / Related substances (w/w %): Total impurities / Chiral purity (%) / Content (HPLC, w/w %): 25° C. ± 2° C./60% RH ± 5% RH; for Chiral purity (%): S-enantiomer; for Content (HPLC, w/w %): deducting residual solvent(s) and moisture
[6] = Accelerated stability test (40° C./75% RH) of crystal form I; type: physicochemical; conditions: for Moisture (KF, w/w %) / Related substances (w/w %): Total impurities / Chiral purity (%) / Content (HPLC, w/w %): 40° C. ± 2° C./75% RH ± 5% RH; for Chiral purity (%): S-enantiomer; for Content (HPLC, w/w %): deducting residual solvent(s) and moisture

Q: For Cl.NCc1c[nH]c(=S)n1[C@H]1CCc2c(F)cc(F)cc2C1.O [crystal form I of hydrochloride salt, (S)-5-aminomethyl-1-(5,7-difluoro-1,2,3,4-tetrahydronaphthalen-2-yl)-1,3-dihydroimidazole-2-thione hydrochloride monohydrate], which solubility ([1]; aqueous with cosolvent or surfactant or cyclodextrin, solvent 15% Isopropanol) is on record?
A: 20000 to 27000 µg/mL

Q: And the solubility ([1]; aqueous with cosolvent or surfactant or cyclodextrin, solvent 30% Methanol)?
A: 21000 to 42000 µg/mL

Q: And the solubility ([1]; aqueous with cosolvent or surfactant or cyclodextrin, solvent 50% Acetonitrile)?
A: 80000 to 100000 µg/mL

Q: And the solubility ([1]; aqueous with cosolvent or surfactant or cyclodextrin, solvent 50% Ethanol)?
A: 20000 to 27000 µg/mL

Q: What about the solubility ([1]; aqueous with cosolvent or surfactant or cyclodextrin, solvent 50% Isopropanol) of the same compound?
A: 40000 to 80000 µg/mL

Q: And the solubility ([1]; aqueous with cosolvent or surfactant or cyclodextrin, solvent 50% Tetrahydrofuran)?
A: 100000 to 130000 µg/mL

Q: What about the solubility ([1]; organic solvent or mixture, solvent 1,4-Dioxane) of the same compound?
A: < 1000 µg/mL

Q: What about the solubility ([1]; organic solvent or mixture, solvent 2-Butanone) of the same compound?
A: < 1000 µg/mL

Q: And the solubility ([1]; organic solvent or mixture, solvent 2-Methyltetrahydrofuran)?
A: < 1000 µg/mL

Q: And the solubility ([1]; organic solvent or mixture, solvent Acetone)?
A: < 1000 µg/mL

Q: And the solubility ([1]; organic solvent or mixture, solvent Acetonitrile)?
A: 40 µg/mL

Q: And the solubility ([1]; organic solvent or mixture, solvent Chloroform)?
A: 380 µg/mL

Q: What about the solubility ([1]; organic solvent or mixture, solvent Dichloromethane) of the same compound?
A: < 10 µg/mL

Q: What about the solubility ([1]; organic solvent or mixture, solvent Ethanol) of the same compound?
A: 6500 µg/mL

Q: What about the solubility ([1]; organic solvent or mixture, solvent Ethyl acetate) of the same compound?
A: 10 µg/mL

Q: What about the solubility ([1]; organic solvent or mixture, solvent Isopropanol) of the same compound?
A: 6000 µg/mL

Q: What about the solubility ([1]; organic solvent or mixture, solvent Methanol) of the same compound?
A: 33000 µg/mL

Q: What about the solubility ([1]; organic solvent or mixture, solvent Methyl tert-butyl ether) of the same compound?
A: < 1000 µg/mL

Q: What about the solubility ([1]; organic solvent or mixture, solvent N-hexane) of the same compound?
A: < 10 µg/mL

Q: What about the solubility ([1]; organic solvent or mixture, solvent Propanol) of the same compound?
A: 11700 µg/mL

Q: And the solubility ([1]; organic solvent or mixture, solvent Propylene carbonate)?
A: 140 µg/mL

Q: And the solubility ([1]; organic solvent or mixture, solvent Tetrahydrofuran)?
A: 90 µg/mL

Q: And the solubility ([1]; solvent Purified water)?
A: 7400 µg/mL

Q: And the “hygroscopicity of the sample” value ([2]; DVS, 0% RH to 80% RH)?
A: slight hygroscopicity

Q: And the “weight gain by hygroscopicity” value ([2]; DVS, from 0% RH to 80% RH, 25° C.)?
A: about 1.036%

Q: What about the “crystal form before and after the DVS test” value ([2]; XRPD before and after DVS) of the same compound?
A: remained unchanged

Q: What about the bioavailability [3] of the same compound?
A: > 70%

Q: And the “crystal form stability (XRPD pattern)” value ([4]; 60° C.)?
A: stable

Q: And the “crystal form stability (XRPD pattern)” value ([4]; 60° C./75% RH)?
A: stable

Q: And the “impurity produced due to degradation” value ([4]; solid left at 60° C. for 15 days)?
A: no significant impurity to produce due to degradation

Q: What about the “impurity produced due to degradation” value ([4]; solid left at 60° C./75% RH for 15 days) of the same compound?
A: no significant impurity to produce due to degradation

Q: And the “Moisture (KF, w/w %)” value ([5]; 3 months)?
A: 5.7 w/w %

Q: And the “Related substances (w/w %): Total impurities” value (“Related substances (w/w %)” for short) ([5]; 3 months)?
A: not detected

Q: What about the “Chiral purity (%)” value ([5]; 3 months) of the same compound?
A: 99.8%

Q: And the “Content (HPLC, w/w %)” value ([5]; 3 months)?
A: 100.8 w/w %

Q: What about the “Moisture (KF, w/w %)” value ([5]; 6 months) of the same compound?
A: 6.0 w/w %

Q: And the “Related substances (w/w %)” value ([5]; 6 months)?
A: not detected

Q: And the “Chiral purity (%)” value ([5]; 6 months)?
A: 99.8%

Q: And the “Content (HPLC, w/w %)” value ([5]; 6 months)?
A: 100.3 w/w %

Q: And the “Moisture (KF, w/w %)” value ([5]; 9 months)?
A: 6.3 w/w %

Q: What about the “Related substances (w/w %)” value ([5]; 9 months) of the same compound?
A: not detected

Q: And the “Chiral purity (%)” value ([5]; 9 months)?
A: 99.8%

Q: And the “Content (HPLC, w/w %)” value ([5]; 9 months)?
A: 100.5 w/w %

Q: What about the “Moisture (KF, w/w %)” value ([5]; 12 months) of the same compound?
A: 6.2 w/w %

Q: What about the “Related substances (w/w %)” value ([5]; 12 months) of the same compound?
A: not detected

Q: What about the “Chiral purity (%)” value ([5]; 12 months) of the same compound?
A: 99.8%

Q: What about the “Content (HPLC, w/w %)” value ([5]; 12 months) of the same compound?
A: 100.0 w/w %

Q: What about the “Moisture (KF, w/w %)” value ([5]; Initial) of the same compound?
A: 5.9 w/w %

Q: What about the “Related substances (w/w %)” value ([5]; Initial) of the same compound?
A: not detected

Q: What about the “Chiral purity (%)” value ([5]; Initial) of the same compound?
A: 99.8%

Q: And the “Content (HPLC, w/w %)” value ([5]; Initial)?
A: 100.3 w/w %

Q: And the long-term stability ([5]; 25° C./60% RH, double-layer polyethylene bag)?
A: no significant change in the detection results

Q: What about the “Moisture (KF, w/w %)” value ([6]; 1 months) of the same compound?
A: 5.8 w/w %

Q: And the “Related substances (w/w %)” value ([6]; 1 months)?
A: not detected

Q: What about the “Chiral purity (%)” value ([6]; 1 months) of the same compound?
A: 99.8%

Q: What about the “Content (HPLC, w/w %)” value ([6]; 1 months) of the same compound?
A: 100.4 w/w %

Q: What about the “Moisture (KF, w/w %)” value ([6]; 2 months) of the same compound?
A: 5.7 w/w %

Q: And the “Related substances (w/w %)” value ([6]; 2 months)?
A: not detected

Q: What about the “Chiral purity (%)” value ([6]; 2 months) of the same compound?
A: 99.8%

Q: And the “Content (HPLC, w/w %)” value ([6]; 2 months)?
A: 99.6 w/w %

Q: What about the “Moisture (KF, w/w %)” value ([6]; 3 months) of the same compound?
A: 5.7 w/w %

Q: And the “Related substances (w/w %)” value ([6]; 3 months)?
A: not detected

Q: What about the “Chiral purity (%)” value ([6]; 3 months) of the same compound?
A: 99.8%

Q: What about the “Content (HPLC, w/w %)” value ([6]; 3 months) of the same compound?
A: 100.4 w/w %

Q: What about the “Moisture (KF, w/w %)” value ([6]; 6 months) of the same compound?
A: 5.8 w/w %

Q: And the “Related substances (w/w %)” value ([6]; 6 months)?
A: not detected

Q: What about the “Chiral purity (%)” value ([6]; 6 months) of the same compound?
A: 99.8%

Q: And the “Content (HPLC, w/w %)” value ([6]; 6 months)?
A: 100.1 w/w %

Q: What about the “Moisture (KF, w/w %)” value ([6]; Initial) of the same compound?
A: 5.9 w/w %

Q: And the “Related substances (w/w %)” value ([6]; Initial)?
A: not detected

Q: And the “Chiral purity (%)” value ([6]; Initial)?
A: 99.8%

Q: What about the “Content (HPLC, w/w %)” value ([6]; Initial) of the same compound?
A: 100.3 w/w %

Q: And the accelerated stability ([6]; 40° C./75% RH, double-layer polyethylene bag)?
A: no significant change in the detection results
